The target of assay [1] is T1, Frizzled-7 (Homo sapiens, UniProt O75084). In words: Inhibition of Frizzled-7 in HEK293 cells expressing Wnt assessed as reduction in Wnt signaling by firefly luciferase reporter gene assay. It is filed as cell-based.
Assay [2] deals with T1, Frizzled-7. Nature of the assay: biochemical. Type of assay: cell-based, CHO. Conditions: read-out: Kd.
The target of assay [3] is T1, Frizzled-7. It is filed as cell-based. Conditions: cho.
The target in assay [4] is T1, Frizzled-7. As to conditions: CHO.
Description: Binding affinity to recombinant human Frizzled-7 (Gln33 to Leu185 residues)/human IgG1 chimeric protein expressed in CHO cells assessed as association rate constant by SPR assay

Bridge positions count the residues as written; N and C are the ends. Square brackets hold non-standard residues; d marks the D form. Peptide text beside a SMILES is read from it. I, II: the chains in the order shown. hPhe = N[C@@H](CCc1ccccc1)C(=O)O; tBuAla = CC(C)(C)C[C@H](N)C(=O)O; hLeu = CC(C)CC[C@H](N)C(=O)O

For the compound `CC[C@H](C)[C@H](NC(=O)[C@H](Cc1cnc[nH]1)NC(=O)[C@H](CSSC[C@H](NC(=O)[C@H](Cc1c[nH]c2ccccc12)NC(=O)[C@H](CC(C)C)NC(=O)[C@H](CCCCN)NC(=O)[C@H](CC(C)C)NC(=O)[C@H](CC(=O)O)NC(=O)[C@H](CC(=O)O)NC(=O)[C@@H](NC(C)=O)[C@H](C)O)C(=O)N[C@@H](Cc1cnc[nH]1)C(=O)N[C@H](C(=O)N[C@@H](CCSC)C(=O)N[C@@H](Cc1ccc(O)cc1)C(N)=O)[C@@H](C)CC)NC(=O)[C@H](Cc1c[nH]c2ccccc12)NC(=O)[C@H](CC(C)C)NC(=O)[C@H](CCCCN)NC(=O)[C@H](CC(C)C)NC(=O)[C@H](CC(=O)O)NC(=O)[C@H](CC(=O)O)NC(=O)[C@@H](NC(C)=O)[C@H](C)O)C(=O)N[C@@H](CCSC)C(=O)N[C@@H](Cc1ccc(O)cc1)C(N)=O`, the IC50 at Frizzled-7 [1] was determined as 4800 pM. The Kd was found to be 45 pM on Frizzled-7 [2] and 0.46 ×10⁻³ /s at Frizzled-7 [3]. The Ka on Frizzled-7 [4] was determined as 103 ×10⁵ /M/s.
Regarding `CC[C@H](C)[C@H](NC(=O)[C@H](Cc1cnc[nH]1)NC(=O)[C@H](CSSC[C@H](NC(=O)[C@H](Cc1c[nH]c2ccccc12)NC(=O)[C@H](CC(C)C)NC(=O)[C@H](CCC(=O)O)NC(=O)[C@H](CC(C)C)NC(=O)[C@H](CC(=O)O)NC(=O)[C@H](CC(=O)O)NC(=O)[C@H](CO)NC(C)=O)C(=O)N[C@@H](Cc1cnc[nH]1)C(=O)N[C@H](C(=O)N[C@@H](CCSC)C(=O)N[C@@H](Cc1ccc(O)cc1)C(N)=O)[C@@H](C)CC)NC(=O)[C@H](Cc1c[nH]c2ccccc12)NC(=O)[C@H](CC(C)C)NC(=O)[C@H](CCC(=O)O)NC(=O)[C@H](CC(C)C)NC(=O)[C@H](CC(=O)O)NC(=O)[C@H](CC(=O)O)NC(=O)[C@H](CO)NC(C)=O)C(=O)N[C@@H](CCSC)C(=O)N[C@@H](Cc1ccc(O)cc1)C(N)=O` (I: Ac-SDDLELWCHIMY-NH2 / II: Ac-SDDLELWCHIMY-NH2; disulfide I:8-II:8), the concentration for half-maximal inhibition (IC50) on Frizzled-7 [1] amounted to 7300 pM. Further, the Kd at Frizzled-7 [2] was 44 pM; at Frizzled-7 [3], 0.57 ×10⁻³ /s. This compound also gave a Ka on Frizzled-7 [4] of 128 ×10⁵ /M/s.
For `CSCC[C@H](NC(=O)[C@@H](NC(=O)[C@H](Cc1cnc[nH]1)NC(=O)[C@H](CSSC[C@H](NC(=O)[C@H](Cc1c[nH]c2ccccc12)NC(=O)[C@H](Cc1ccccc1)NC(=O)[C@H](CCC(=O)O)NC(=O)[C@H](CCC(C)C)NC(=O)[C@H](CC(=O)O)NC(=O)[C@H](CC(=O)O)NC(=O)[C@H](CO)NC(C)=O)C(=O)N[C@@H](Cc1cnc[nH]1)C(=O)N[C@H](C(=O)N[C@@H](CCSC)C(=O)N[C@@H](Cc1ccc(O)cc1)C(N)=O)C(C)C)NC(=O)[C@H](Cc1c[nH]c2ccccc12)NC(=O)[C@H](Cc1ccccc1)NC(=O)[C@H](CCC(=O)O)NC(=O)[C@H](CCC(C)C)NC(=O)[C@H](CC(=O)O)NC(=O)[C@H](CC(=O)O)NC(=O)[C@H](CO)NC(C)=O)C(C)C)C(=O)N[C@@H](Cc1ccc(O)cc1)C(N)=O` (I: Ac-SDD[hLeu]EFWCHVMY-NH2 / II: Ac-SDD[hLeu]EFWCHVMY-NH2; disulfide I:8-II:8), the values for the Kd on Frizzled-7 [2] and on Frizzled-7 [3] were 115000 pM and 123.5 ×10⁻³ /s, respectively. The Ka on Frizzled-7 [4] stood at 10.9 ×10⁵ /M/s.
On the same counts, the results for `CSCC[C@H](NC(=O)[C@@H](NC(=O)[C@H](Cc1cnc[nH]1)NC(=O)[C@H](CSSC[C@H](NC(=O)[C@H](Cc1c[nH]c2ccccc12)NC(=O)[C@H](Cc1ccccc1)NC(=O)[C@H](CCC(=O)O)NC(=O)[C@H](CCc1ccccc1)NC(=O)[C@H](CC(=O)O)NC(=O)[C@H](CC(=O)O)NC(=O)[C@H](CO)NC(C)=O)C(=O)N[C@@H](Cc1cnc[nH]1)C(=O)N[C@H](C(=O)N[C@@H](CCSC)C(=O)N[C@@H](Cc1ccc(O)cc1)C(N)=O)C(C)C)NC(=O)[C@H](Cc1c[nH]c2ccccc12)NC(=O)[C@H](Cc1ccccc1)NC(=O)[C@H](CCC(=O)O)NC(=O)[C@H](CCc1ccccc1)NC(=O)[C@H](CC(=O)O)NC(=O)[C@H](CC(=O)O)NC(=O)[C@H](CO)NC(C)=O)C(C)C)C(=O)N[C@@H](Cc1ccc(O)cc1)C(N)=O` (I: Ac-SDD[hPhe]EFWCHVMY-NH2 / II: Ac-SDD[hPhe]EFWCHVMY-NH2; disulfide I:8-II:8) are 1400 pM, 9.1 ×10⁻³ /s and 69.6 ×10⁵ /M/s.
In the case of `CSCC[C@H](NC(=O)[C@@H](NC(=O)[C@H](Cc1cnc[nH]1)NC(=O)[C@H](CSSC[C@H](NC(=O)[C@H](Cc1c[nH]c2ccccc12)NC(=O)[C@H](Cc1ccccc1)NC(=O)[C@H](CCC(=O)O)NC(=O)[C@H](CC(C)(C)C)NC(=O)[C@H](CC(=O)O)NC(=O)[C@H](CC(=O)O)NC(=O)[C@H](CO)NC(C)=O)C(=O)N[C@@H](Cc1cnc[nH]1)C(=O)N[C@H](C(=O)N[C@@H](CCSC)C(=O)N[C@@H](Cc1ccc(O)cc1)C(N)=O)C(C)C)NC(=O)[C@H](Cc1c[nH]c2ccccc12)NC(=O)[C@H](Cc1ccccc1)NC(=O)[C@H](CCC(=O)O)NC(=O)[C@H](CC(C)(C)C)NC(=O)[C@H](CC(=O)O)NC(=O)[C@H](CC(=O)O)NC(=O)[C@H](CO)NC(C)=O)C(C)C)C(=O)N[C@@H](Cc1ccc(O)cc1)C(N)=O` (I: Ac-SDD[tBuAla]EFWCHVMY-NH2 / II: Ac-SDD[tBuAla]EFWCHVMY-NH2; disulfide I:8-II:8), the Kd was 220 pM on Frizzled-7 [2] and 0.95 ×10⁻³ /s at Frizzled-7 [3]. The compound also came in with a Ka on Frizzled-7 [4] of 44 ×10⁵ /M/s.
Regarding `CSCC[C@H](NC(=O)[C@@H](NC(=O)[C@H](Cc1cnc[nH]1)NC(=O)[C@H](CSSC[C@H](NC(=O)[C@H](Cc1c[nH]c2ccccc12)NC(=O)[C@H](Cc1ccccc1)NC(=O)[C@H](CCC(=O)O)NC(=O)[C@H](CC(C)C)NC(=O)[C@H](CC(=O)O)NC(=O)[C@H](CC(=O)O)NC(=O)[C@@H](NC(C)=O)[C@@H](C)O)C(=O)N[C@@H](Cc1cnc[nH]1)C(=O)N[C@H](C(=O)N[C@@H](CCSC)C(=O)N[C@@H](Cc1ccc(O)cc1)C(N)=O)C(C)C)NC(=O)[C@H](Cc1c[nH]c2ccccc12)NC(=O)[C@H](Cc1ccccc1)NC(=O)[C@H](CCC(=O)O)NC(=O)[C@H](CC(C)C)NC(=O)[C@H](CC(=O)O)NC(=O)[C@H](CC(=O)O)NC(=O)[C@@H](NC(C)=O)[C@@H](C)O)C(C)C)C(=O)N[C@@H](Cc1ccc(O)cc1)C(N)=O` (I: Ac-TDDLEFWCHVMY-NH2 / II: Ac-TDDLEFWCHVMY-NH2; disulfide I:8-II:8), the Kd at Frizzled-7 [2] came out at 140 pM; on Frizzled-7 [3], 0.72 ×10⁻³ /s. Besides, the Ka at Frizzled-7 [4] is 51.5 ×10⁵ /M/s.

These data come from ChEMBL document CHEMBL4373723 (J Med Chem, 2019).
